Blank lines part the entries; values can stand above or below the molecule they belong to. Calls of active or inactive are those of the source.
Assays:
[1] = target: T1, High affinity choline transporter 1 (Homo sapiens, UniProt Q9GZV3); assay: CHT inhibitors, dose response, cell-based, 5-point CRC, membrane potential dye (AID 504840); format: functional
T1 sequence (Q9GZV3 whole entry): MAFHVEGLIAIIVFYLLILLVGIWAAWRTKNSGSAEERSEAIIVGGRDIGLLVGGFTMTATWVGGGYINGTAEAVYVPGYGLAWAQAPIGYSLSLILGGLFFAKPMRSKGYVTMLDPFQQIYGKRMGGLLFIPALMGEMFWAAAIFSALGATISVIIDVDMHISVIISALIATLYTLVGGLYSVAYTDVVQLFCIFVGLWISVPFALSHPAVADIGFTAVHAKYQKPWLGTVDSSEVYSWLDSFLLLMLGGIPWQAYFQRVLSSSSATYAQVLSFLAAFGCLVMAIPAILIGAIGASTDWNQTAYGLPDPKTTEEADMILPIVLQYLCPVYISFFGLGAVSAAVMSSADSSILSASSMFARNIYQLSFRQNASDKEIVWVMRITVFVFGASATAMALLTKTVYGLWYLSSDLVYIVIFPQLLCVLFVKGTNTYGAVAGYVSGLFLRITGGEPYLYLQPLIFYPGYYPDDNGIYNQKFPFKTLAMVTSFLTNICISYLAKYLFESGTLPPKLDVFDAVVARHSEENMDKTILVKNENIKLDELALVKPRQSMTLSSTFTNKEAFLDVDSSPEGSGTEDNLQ

[2] = target: T1, High affinity choline transporter 1; assay: CHT inhibitors, dose response, cell-based, 10-point CRC, membrane potential dye (AID 588401); format: functional;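 also: membrane potential dye fluorescence of choline-evoked depolarization via CHT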
[3] = target: T2, Sentrin-specific protease 7 (Homo sapiens, UniProt Q9BQF6); assay: SENP7 protease inhibitors, SAR follow-up, biochemical, luminescence (AID 504497); format: functional
T2 sequence (Q9BQF6 whole entry): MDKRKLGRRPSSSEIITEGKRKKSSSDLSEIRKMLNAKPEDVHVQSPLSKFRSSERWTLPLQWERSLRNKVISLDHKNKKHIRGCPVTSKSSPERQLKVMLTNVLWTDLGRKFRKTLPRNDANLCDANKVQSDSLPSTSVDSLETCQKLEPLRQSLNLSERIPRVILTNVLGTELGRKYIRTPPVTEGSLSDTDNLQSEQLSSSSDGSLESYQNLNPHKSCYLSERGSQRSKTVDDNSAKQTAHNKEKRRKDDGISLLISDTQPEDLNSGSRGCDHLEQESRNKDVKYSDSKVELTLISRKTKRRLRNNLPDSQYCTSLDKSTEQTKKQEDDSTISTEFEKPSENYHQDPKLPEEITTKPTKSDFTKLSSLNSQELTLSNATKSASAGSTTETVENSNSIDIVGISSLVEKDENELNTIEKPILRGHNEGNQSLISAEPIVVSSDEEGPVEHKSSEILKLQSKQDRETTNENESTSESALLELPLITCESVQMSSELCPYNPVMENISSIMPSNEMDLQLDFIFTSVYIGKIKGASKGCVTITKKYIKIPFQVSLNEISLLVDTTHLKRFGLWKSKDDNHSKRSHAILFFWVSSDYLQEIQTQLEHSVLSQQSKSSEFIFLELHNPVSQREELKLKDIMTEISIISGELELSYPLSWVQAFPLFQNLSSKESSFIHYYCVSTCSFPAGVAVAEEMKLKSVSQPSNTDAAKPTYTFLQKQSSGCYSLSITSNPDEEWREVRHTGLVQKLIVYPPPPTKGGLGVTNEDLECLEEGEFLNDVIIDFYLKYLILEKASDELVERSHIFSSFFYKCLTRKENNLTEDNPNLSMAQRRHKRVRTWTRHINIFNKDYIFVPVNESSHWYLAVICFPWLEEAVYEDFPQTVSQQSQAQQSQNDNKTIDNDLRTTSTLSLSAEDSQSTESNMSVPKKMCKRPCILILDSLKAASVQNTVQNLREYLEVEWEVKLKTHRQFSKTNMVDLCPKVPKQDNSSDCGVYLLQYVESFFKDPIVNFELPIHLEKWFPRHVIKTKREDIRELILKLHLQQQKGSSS

[4] = target: T3, Sentrin-specific protease 8 (Homo sapiens, UniProt Q96LD8); assay: SENP8 protease inhibitors, SAR follow-up, biochemical, luminescence (AID 504501); format: functional
T3 sequence (Q96LD8 whole entry): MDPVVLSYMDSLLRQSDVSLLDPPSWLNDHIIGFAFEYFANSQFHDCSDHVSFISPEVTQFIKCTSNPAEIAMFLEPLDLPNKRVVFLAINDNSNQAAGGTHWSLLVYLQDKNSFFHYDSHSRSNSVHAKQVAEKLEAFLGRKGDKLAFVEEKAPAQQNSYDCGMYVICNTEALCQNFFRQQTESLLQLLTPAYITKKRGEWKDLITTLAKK

Caspase-3 = target: T4, Caspase-3 (Homo sapiens, UniProt P42574); assay: SAR Analysis of small molecule inhibitors of Sentrin-specific proteases (SENPs) using a Caspase-3 Selectivity assay. [Related pubchem assays (depositor defined):AID2540, AID2599, AID434973, AID489001]; format: functional
T4 sequence (P42574 whole entry): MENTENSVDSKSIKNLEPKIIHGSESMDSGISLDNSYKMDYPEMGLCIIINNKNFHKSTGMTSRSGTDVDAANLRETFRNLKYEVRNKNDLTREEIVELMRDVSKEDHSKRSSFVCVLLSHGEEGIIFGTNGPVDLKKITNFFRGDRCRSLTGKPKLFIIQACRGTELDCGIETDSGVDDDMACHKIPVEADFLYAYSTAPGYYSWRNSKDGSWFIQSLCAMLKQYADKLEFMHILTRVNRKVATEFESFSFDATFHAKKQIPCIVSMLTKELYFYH

[5] = target: T5, Sentrin-specific protease 6 (Homo sapiens, UniProt Q9GZR1); assay: SAR Analysis of small molecule inhibitors of Sentrin-specific protease 6 (SENP6) using a Luminescent assay. [Related pubchem assays (depositor defined):AID2582, AID2599]; format: functional
T5 sequence (Q9GZR1 whole entry): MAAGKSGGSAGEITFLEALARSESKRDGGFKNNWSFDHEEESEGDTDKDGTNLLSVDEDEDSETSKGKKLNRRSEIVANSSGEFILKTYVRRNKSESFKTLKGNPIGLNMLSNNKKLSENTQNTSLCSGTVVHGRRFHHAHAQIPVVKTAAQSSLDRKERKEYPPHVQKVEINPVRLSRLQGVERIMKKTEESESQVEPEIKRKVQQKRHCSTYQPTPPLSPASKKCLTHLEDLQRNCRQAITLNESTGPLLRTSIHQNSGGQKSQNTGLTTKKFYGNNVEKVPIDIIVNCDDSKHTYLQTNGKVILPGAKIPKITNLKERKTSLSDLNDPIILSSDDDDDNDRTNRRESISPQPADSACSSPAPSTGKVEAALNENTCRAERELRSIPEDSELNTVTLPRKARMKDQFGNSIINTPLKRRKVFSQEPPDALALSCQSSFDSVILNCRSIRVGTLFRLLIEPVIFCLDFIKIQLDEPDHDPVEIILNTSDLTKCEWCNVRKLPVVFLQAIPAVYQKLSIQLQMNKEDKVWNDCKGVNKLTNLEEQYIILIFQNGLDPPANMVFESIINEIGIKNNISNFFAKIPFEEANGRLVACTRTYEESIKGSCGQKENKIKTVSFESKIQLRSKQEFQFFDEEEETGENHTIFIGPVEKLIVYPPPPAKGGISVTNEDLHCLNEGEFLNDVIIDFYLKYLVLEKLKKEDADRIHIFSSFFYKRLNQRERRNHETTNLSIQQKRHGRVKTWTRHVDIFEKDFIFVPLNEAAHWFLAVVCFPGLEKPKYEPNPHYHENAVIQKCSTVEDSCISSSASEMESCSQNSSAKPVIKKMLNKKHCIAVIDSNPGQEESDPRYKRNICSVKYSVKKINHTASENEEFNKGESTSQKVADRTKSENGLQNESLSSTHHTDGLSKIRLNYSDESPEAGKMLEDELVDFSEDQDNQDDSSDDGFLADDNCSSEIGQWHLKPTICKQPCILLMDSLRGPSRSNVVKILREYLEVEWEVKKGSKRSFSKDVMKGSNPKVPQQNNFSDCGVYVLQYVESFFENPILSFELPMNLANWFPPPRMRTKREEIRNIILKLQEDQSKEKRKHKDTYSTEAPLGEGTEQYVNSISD

[6] = target: Mitochondrial peptide methionine sulfoxide reductase (Bos taurus, UniProt P54149); format: functional;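 also: absorbance read-out, biochemical high-throughput dose-response screen for MsrA inhibitors, confirmatory; recombinant bovine MsrA coupled to E. coli TrxB with NADPH and selenocystamine; potency is for inhibitors of MsrA activity on DMSO substrate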
Chain of Mitochondrial peptide methionine sulfoxide reductase (P54149 whole entry): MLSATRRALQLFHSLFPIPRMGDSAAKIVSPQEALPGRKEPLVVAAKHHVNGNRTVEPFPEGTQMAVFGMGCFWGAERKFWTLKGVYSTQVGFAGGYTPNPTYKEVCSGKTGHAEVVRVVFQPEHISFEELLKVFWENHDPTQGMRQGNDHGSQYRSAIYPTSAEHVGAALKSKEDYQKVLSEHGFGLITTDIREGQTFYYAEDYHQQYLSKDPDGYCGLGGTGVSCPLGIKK

[7] = target: T3, Sentrin-specific protease 8; format: functional
[8] = target: Benomyl/methotrexate resistance protein (Candida albicans, UniProt P28873); assay: CaMdr1 efflux pump inhibitor potency, dose response, singleplex, Cherry Pick1 hits (AID 588608); format: functional
Chain of Benomyl/methotrexate resistance protein (P28873 whole entry): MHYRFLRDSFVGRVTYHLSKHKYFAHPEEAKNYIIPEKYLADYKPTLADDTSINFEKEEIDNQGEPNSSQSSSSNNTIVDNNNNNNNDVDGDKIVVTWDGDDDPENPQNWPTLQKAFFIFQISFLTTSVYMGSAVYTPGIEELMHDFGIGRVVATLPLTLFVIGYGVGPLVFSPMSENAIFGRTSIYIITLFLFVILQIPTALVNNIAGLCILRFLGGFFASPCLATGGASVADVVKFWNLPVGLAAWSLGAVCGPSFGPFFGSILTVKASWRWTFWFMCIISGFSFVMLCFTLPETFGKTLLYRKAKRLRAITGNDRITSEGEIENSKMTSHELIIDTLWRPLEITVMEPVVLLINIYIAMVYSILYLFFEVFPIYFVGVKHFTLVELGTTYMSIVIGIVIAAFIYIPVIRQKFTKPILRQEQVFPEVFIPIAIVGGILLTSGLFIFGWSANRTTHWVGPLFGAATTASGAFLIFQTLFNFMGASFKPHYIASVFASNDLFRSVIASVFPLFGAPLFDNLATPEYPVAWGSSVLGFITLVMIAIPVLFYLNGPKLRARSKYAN

[9] = target: T6, Sentrin-specific protease 1 (Homo sapiens, UniProt Q9P0U3); assay: potency of human SENP1 inhibitors, dose response, biochemical, kinetic FRET (AID 651697); format: functional; conditions: read-out: IC50_Mean
T6 sequence (Q9P0U3 whole entry): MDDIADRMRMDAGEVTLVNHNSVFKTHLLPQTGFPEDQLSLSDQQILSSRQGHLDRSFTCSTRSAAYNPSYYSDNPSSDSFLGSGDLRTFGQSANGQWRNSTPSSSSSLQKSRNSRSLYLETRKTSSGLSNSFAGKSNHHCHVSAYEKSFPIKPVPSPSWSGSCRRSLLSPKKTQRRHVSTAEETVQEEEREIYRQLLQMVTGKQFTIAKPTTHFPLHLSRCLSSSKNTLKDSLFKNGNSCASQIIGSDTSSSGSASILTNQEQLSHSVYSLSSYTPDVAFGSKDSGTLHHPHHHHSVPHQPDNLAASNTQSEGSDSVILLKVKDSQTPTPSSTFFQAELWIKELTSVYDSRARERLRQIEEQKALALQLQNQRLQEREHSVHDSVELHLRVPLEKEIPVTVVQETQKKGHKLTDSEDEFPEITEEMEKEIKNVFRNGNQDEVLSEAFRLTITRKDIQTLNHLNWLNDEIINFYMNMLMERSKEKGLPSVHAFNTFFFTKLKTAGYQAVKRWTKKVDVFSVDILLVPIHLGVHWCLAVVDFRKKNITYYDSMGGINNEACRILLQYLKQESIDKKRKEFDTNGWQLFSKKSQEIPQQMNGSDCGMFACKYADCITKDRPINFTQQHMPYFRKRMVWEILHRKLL

[10] = target: T6, Sentrin-specific protease 1; assay: Dose response confirmation of small molecule inhibitors of the catalytic domain of the SUMO protease, SENP1 in a FRET assay.; format: functional; conditions: read-out: IC50_Mean
Mu-type opioid receptor = Mu-type opioid receptor (Homo sapiens, UniProt P35372); format: functional, cell-based;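 also: U2OS cells with beta-arrestin recruitment to OPRM1 by beta-gal complementation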
Chain of Mu-type opioid receptor (P35372 whole entry): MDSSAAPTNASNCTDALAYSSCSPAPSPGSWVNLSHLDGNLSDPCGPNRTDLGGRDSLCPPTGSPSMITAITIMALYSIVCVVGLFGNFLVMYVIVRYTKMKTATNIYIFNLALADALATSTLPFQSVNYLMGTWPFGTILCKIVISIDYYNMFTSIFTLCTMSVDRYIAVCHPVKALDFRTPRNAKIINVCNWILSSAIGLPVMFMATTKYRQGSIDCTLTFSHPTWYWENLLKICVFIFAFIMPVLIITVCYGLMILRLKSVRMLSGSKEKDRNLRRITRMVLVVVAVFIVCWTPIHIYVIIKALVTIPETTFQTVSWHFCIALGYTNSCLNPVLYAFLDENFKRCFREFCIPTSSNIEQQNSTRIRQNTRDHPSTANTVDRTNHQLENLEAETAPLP

[11] = target: 5-hydroxytryptamine receptor 2A (Mus musculus, UniProt P35363); format: functional, cell-based;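 also: CHO-K1 cells with tagged receptor and beta-arrestin; agonist potency measured as compound-induced activation of the receptor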
Chain of 5-hydroxytryptamine receptor 2A (P35363 whole entry): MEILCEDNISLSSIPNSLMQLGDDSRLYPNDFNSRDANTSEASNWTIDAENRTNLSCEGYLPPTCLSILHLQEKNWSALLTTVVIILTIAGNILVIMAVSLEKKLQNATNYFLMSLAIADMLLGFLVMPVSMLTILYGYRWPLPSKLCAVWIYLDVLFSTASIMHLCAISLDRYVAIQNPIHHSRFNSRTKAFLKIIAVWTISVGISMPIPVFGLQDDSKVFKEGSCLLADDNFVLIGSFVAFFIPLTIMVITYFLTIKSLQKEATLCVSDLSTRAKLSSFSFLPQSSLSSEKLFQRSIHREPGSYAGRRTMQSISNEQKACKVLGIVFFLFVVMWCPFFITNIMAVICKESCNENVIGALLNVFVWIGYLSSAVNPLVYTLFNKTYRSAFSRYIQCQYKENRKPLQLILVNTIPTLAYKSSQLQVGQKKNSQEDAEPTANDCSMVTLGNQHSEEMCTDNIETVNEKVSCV

[12] = target: T7, Rac GTPase-activating protein 1 (Homo sapiens, UniProt Q9H0H5); assay: MgcRacGAP GTPase-activating activity inhibitors, confirmation, biochemical, ADP Hunter fluorescence, primary and confirmatory (AID 624330); format: functional
T7 sequence (Q9H0H5 whole entry): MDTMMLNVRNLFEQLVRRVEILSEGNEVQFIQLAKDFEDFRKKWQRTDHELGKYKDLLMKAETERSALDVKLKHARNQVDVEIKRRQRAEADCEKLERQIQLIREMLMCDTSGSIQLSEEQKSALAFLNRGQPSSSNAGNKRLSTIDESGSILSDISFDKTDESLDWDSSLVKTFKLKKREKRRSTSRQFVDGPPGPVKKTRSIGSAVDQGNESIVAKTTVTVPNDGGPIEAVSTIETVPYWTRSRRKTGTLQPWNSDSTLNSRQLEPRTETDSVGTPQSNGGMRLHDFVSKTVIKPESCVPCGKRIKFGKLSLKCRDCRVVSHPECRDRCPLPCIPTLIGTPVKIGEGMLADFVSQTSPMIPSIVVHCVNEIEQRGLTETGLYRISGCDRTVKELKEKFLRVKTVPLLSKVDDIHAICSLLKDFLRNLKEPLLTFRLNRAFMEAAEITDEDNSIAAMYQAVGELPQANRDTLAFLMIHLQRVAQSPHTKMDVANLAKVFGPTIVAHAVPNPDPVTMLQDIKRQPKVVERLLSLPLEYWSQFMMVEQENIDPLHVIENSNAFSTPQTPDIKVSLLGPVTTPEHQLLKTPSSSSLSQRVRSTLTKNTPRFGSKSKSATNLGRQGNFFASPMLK

Protein Wnt-3a = Protein Wnt-3a (Mus musculus, UniProt P27467); assay: Wnt3a-driven reporter signaling inhibition, dose response, selectivity assay for Gli-SUFU antagonist project, Wnt-LIGHT cells, luminescence (AID 651570); format: functional; conditions: read-out: IC50_Mean;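 also: Wnt-LIGHT reporter cells stimulated with conditioned medium from Wnt3a-producing cells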
Chain of Protein Wnt-3a (P27467 whole entry): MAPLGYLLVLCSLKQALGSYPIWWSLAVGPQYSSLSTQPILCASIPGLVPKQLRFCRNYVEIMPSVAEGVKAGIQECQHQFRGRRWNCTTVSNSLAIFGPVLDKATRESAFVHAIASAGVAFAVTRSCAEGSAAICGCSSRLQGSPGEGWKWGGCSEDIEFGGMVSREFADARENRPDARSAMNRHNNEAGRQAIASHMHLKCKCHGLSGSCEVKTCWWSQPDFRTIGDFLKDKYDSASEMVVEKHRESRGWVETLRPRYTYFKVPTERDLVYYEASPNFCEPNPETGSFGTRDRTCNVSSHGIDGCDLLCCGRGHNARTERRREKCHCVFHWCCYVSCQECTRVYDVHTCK

IC50 [1]: 3.92 µM (active) | IC50 [2]: 2.67 µM (active)
SMILES: CNc1cc(Cl)nc(SC)n1

IC50 [3]: > 99 µM (inactive) | IC50 (Caspase-3): > 99 µM (inactive) | IC50 [5]: > 99 µM (inactive)
SMILES: FC(F)(F)c1ccc(N/N=C/c2cn(Cc3ccccc3)c3ccccc23)cc1
IC50 [4]: > 99 µM (inactive)

IC50 [6]: 125 µM (inactive)
SMILES: CC(Nc1c([N+](=O)[O-])c(=O)oc2ccccc12)c1ccccc1 (configuration not stated)

SMILES: O=[N+]([O-])c1c[cH-]c(N2CCN(Cc3ccccc3)CC2)c2[c+]1[n-]o[n+]2=O
IC50 [7]: 17.3 µM (active)

IC50 [6]: 155 µM (inactive)
SMILES: C/C(=N\Nc1ccc([N+](=O)[O-])cc1[N+](=O)[O-])C(C)C(C)C (configuration not stated)

SMILES: O=C(COC(=O)c1c2ccccc2cc2ccccc12)Nc1ncc(C(F)(F)F)cc1Cl
EC50 [8]: 23 µM (active)

IC50 [9]: 26.6 µM (inactive) | IC50 [10]: 69.6 µM (inactive)
SMILES: CC(=O)c1ccccc1Oc1nc(CN2CCOCC2)nc2scc(-c3cccs3)c12

EC50 (Mu-type opioid receptor): 92.4 µM (inactive) | EC50 [11]: 76.1 µM (inactive) | IC50 [12]: 98.7 µM (active)
SMILES: COc1ccc(S(=O)(=O)N2CCC(N3CCN(Cc4ccccc4)CC3)CC2)cc1

IC50 [3]: 85.3 µM (active) | IC50 (Caspase-3): > 99 µM (inactive) | IC50 [5]: 43.7 µM (active)
SMILES: CCCc1ccc(OCc2ccc(C(=O)Nc3ccccc3F)cc2)cc1
IC50 [4]: 70.3 µM (active)

IC50 (Protein Wnt-3a): 19.9 µM (active) | IC50 [1]: 7.51 µM (active) | IC50 [2]: 6.21 µM (active)
SMILES: NC(=O)CC(NC(=O)c1ccccc1)c1ccc(N2CCCCCC2)c([N+](=O)[O-])c1 (configuration not stated)

Source: ChEMBL document CHEMBL1201862, “PubChem BioAssay data set” (2004)
